Data: patent publication US20260274876A1, “3-PYRROLIDINE-INDOLE DIMERS AS SEROTONERGIC AGENTS USEFUL FOR THE TREATMENT OF DISORDERS RELATED THERETO” (MINDSET PHARMA INC., priority 2022, published 2026)
Like-named read-outs stand apart in the source and are kept apart here.

Columns and labels:
[1] = target: human 5-HT2A receptor (Homo sapiens, UniProt P28223); assay: Human 5-HT2A functional FLIPR assay (agonist mode); assay type: cell-based; set-up: expressed in transfected cells; settings: for RFU@10 μM: FLIPR, h5-HT2A, curve fitting with activation (%) @ 10 mM with RFU (footnote)
Description: The potential excitatory effects of compounds targeting on human 5-hydroxytryptamine receptor 2A (5-HT2A) under agonist mode was assessed.
HTR2A&Gα15-HEK293 cells were cultured in DMEM medium containing 10% dialyzed FBS and 1×penicillin-streptomycin, 100 μg/mL Hygromycin B and 300 μg/mL G418. The cells were passaged about three times a week, maintained between ~30% to ~90% confluence.
• 1. The cell culture medium (DMEM medium containing 10% dialyzed FBS and 1×penicillin-streptomycin, 100 μg/mL Hygromycin B and 300 μg/mL G418), TrypLE™ Express and DPBS to R.T. was warmed in advance. • 2. For induction, 1 μg/ml tetracycline (final concentration) was added to cell culture medium and incubated for 48 hours prior to seeding cells into plate at 37° C., 5% (v/v) CO2. The cell culture medium was removed from flask. Cells were washed with DPBS. • 3. 2 mL TrypLE™ Express was added to the flask, mixed well by gentle shaking and cells were incubated at 37° C. for a few minutes. • 4. The cells were checked for morphological change under microscope, the digestion was stopped by adding 4 mL cell culture medium to the flask when most of cells turned to round. • 5. The cell suspension was transferred into a 15 mL centrifuge tube, and then centrifuged at 1,200 rpm for 5 minutes. • 6. The supernatant was removed. The cell pellet was resuspended with 2 mL cell culture medium. • 7. The cell density was counted using cell counter. Only cells with >85% viability were used for the assay. • 8. Cells were diluted to 6.67×10^5/mL with cell culture medium. • 9. 30 μL/well cell suspensions added into a 384-well cell plate (The cell density was 20,000 cells/well). • 10. The cell plate was incubated overnight at 37° C., 5% (v/v) CO2.
On the day of experiments, culture medium was removed from the cell plate.
10 μL of assay buffer (20 mM HEPES, in 1×HBSS, pH 7.4) was added to each well of the cell plate.
2×dye solution was prepared following the manual of the FLIPR® Calcium 6 Assay Kit: • i. The dye was diluted with assay buffer. • ii. Probenecid was added to the final concentration of 5 mM. • iii. Vortexed vigorously for 1-2 minutes. • 4. 10 μL of 2×dye solution was added to each well of the cell plate • 5. The cell plate was placed on plate shaker, followed by shaking at 600 rpm for 2 minutes. • 6. The plate was incubated at 37° C. for 2 hours followed by an additional 15-minute incubation at 25° C. 2.4 Prepare 3×compound • 1. Serotonin HCl was prepared to the concentration of 10 mM with DMSO. • 2. The test compounds were prepared to the concentration of 10 mM with DMSO. • 3. The compounds were added to a 384-well compound source plate. • 4. 3-folds serial dilutions were performed with DMSO. • 5. 90 nL/well of serial diluted compounds was transferred from source plate to a 384-well compound plate by using an Echo. • 6. 30 μL/well of assay buffer (20 mM HEPES in 1×HBSS, pH 7.4) was added to the compound plate. • 7. The plate was mixed on-plate shaker for 2 minutes.
• 1. After the cells were incubated with dye solution, the cell plate, compound plate containing 3×compounds and FLIPR tips were placed into FLIPR. • 2. 10 μL of 3×compounds transferred from the compound plate to the cell plate by FLIPR. • 3. The plate was read for 160 sec with 1 sec interval and the data of agonist mode was obtained.
• 1. The normalized fluorescence reading (RFU) was calculated as shown below, wherein Fmax and Fmin stand for maximum and minimum of calcium signal during defined time window:
[formula] • 2. EC50 by fitting RFU against log of compound concentrations with Hill equation was calculated using XLfit.

[2] = Plasma stability, dog; assay type: in vitro ADME; settings: for half-life: 37° C.
Description: (§1) • a. […] The final concentration of organic solvents was 0.5%. The assay was performed in duplicated. • b.
(§2) All calculations were carried out using Microsoft Excel.

[3] = Plasma stability, mouse; assay type: in vitro ADME
Description: as §1, §2

[4] = Plasma stability, rat; assay type: in vitro ADME
Description: as §1, §2

[5] = Plasma stability, human; assay type: in vitro ADME
Description: as §1, §2

[6] = FLIPR agonist mode, HTR2A&Gα15-HEK293 cells, ND: not detected, read-out: h5-HT2A, EC50

human 5-HT2A receptor, sequence (P28223 whole entry): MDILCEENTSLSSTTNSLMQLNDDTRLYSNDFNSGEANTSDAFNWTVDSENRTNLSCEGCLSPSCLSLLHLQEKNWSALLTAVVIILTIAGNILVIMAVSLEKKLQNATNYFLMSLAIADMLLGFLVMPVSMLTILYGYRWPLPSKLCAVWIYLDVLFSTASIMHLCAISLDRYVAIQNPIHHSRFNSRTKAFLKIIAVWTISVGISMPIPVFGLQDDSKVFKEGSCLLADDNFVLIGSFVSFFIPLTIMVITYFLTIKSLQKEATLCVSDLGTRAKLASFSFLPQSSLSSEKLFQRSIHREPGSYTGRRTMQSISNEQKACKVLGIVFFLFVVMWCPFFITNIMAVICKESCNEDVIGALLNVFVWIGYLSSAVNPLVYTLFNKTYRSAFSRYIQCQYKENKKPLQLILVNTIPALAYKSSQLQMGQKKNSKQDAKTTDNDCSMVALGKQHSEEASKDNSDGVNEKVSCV

Structure (SMILES) | EC50 [1] | RFU@10 μM [1] | Remaining Percentage (%) 0 min [2] | half-life [2] | Remaining Percentage (%) 30 min [2] | Remaining Percentage (%) 60 min [2] | Remaining Percentage (%) 120 min [2] | Remaining Percentage (%) 180 min [2] | Remaining Percentage (%) 240 min [2] | Remaining Percentage (%) 0 min [3] | Remaining Percentage (%) 30 min [3] | Remaining Percentage (%) 60 min [3] | Remaining Percentage (%) 120 min [3] | Remaining Percentage (%) 180 min [3] | Remaining Percentage (%) 240 min [3] | EC50 [1, 6] | Remaining Percentage (%) 0 min [4] | Remaining Percentage (%) 30 min [4] | Remaining Percentage (%) 60 min [4] | Remaining Percentage (%) 120 min [4] | also measured
CN1CCC[C@@H]1Cc1c[nH]c2cccc(O)c12 [Compound 10, (R)-3-((1-methylpyrrolidin-2-yl)methyl)-1H-indol-4-ol] | 47 nM | 2929 RFU |  |  |  |  |  |  |  |  |  |  |  |  |  |  |  |  |  |  | 
[2H]C([2H])(c1c[nH]c2cccc(O)c12)[C@H]1CCCN1C([2H])([2H])[2H] [Compound 13, (R)-3-((1-(methyl-d3)pyrrolidin-2-yl)methyl-d2)-1H-indol-4-ol] | 44 nM | 3108 RFU |  |  |  |  |  |  |  |  |  |  |  |  |  |  |  |  |  |  | 
CN1CCC[C@@H]1Cc1c[nH]c2cccc(OC(=O)CCCC(=O)Oc3cccc4[nH]cc(C[C@H]5CCCN5C)c34)c12 [Compound I-13, Bis(3-(((R)-1-methylpyrrolidin-2-yl)methyl)-1H-indol-4-yl) glutarate] |  | 3887 RFU | 100.00% | 49.2 min | 67.21% | 44.90% | 15.17% | 8.32% | 3.48% | 100.00% | 0.00% | 0.00% | 0.00% | 0.00% | 0.00% | 32.3 nM | 100.00% | 0.00% | 0.00% | 0.00% | Remaining Percentage (%) 180 min [4]: 0.00%; Remaining Percentage (%) 240 min [4]: 0.00%; Remaining Percentage (%) 0 min [5]: 100.00%; Remaining Percentage (%) 30 min [5]: 0.00%; Remaining Percentage (%) 60 min [5]: 0.00%; Remaining Percentage (%) 120 min [5]: 0.00%; Remaining Percentage (%) 180 min [5]: 0.00%; Remaining Percentage (%) 240 min [5]: 0.00%
[2H]C([2H])(c1c[nH]c2cccc(OC(=O)CCCC(=O)Oc3cccc4[nH]cc(C([2H])([2H])[C@H]5CCCN5C([2H])([2H])[2H])c34)c12)[C@H]1CCCN1C([2H])([2H])[2H] [Compound I-22, bis(3-(((R)-1-(methyl-d3)pyrrolidin-2-yl)methyl-d2)-1H-indol-4-yl) glutarate] |  | 5409 RFU | 100.00% | 24.9 min | 39.05% | 14.86% | 3.51% | 0.92% | 0.56% | 100.00% | 0.00% | 0.00% | 0.00% | 0.00% | 0.00% | 13.1 nM | 100.00% | 0.00% | 0.00% | 0.00% | Remaining Percentage (%) 180 min [4]: 0.00%; Remaining Percentage (%) 240 min [4]: 0.00%; Remaining Percentage (%) 0 min [5]: 100.00%; Remaining Percentage (%) 30 min [5]: 0.00%; Remaining Percentage (%) 60 min [5]: 0.00%; Remaining Percentage (%) 120 min [5]: 0.00%; Remaining Percentage (%) 180 min [5]: 0.00%; Remaining Percentage (%) 240 min [5]: 0.00%
CN(C)CCc1c[nH]c2cccc(O)c12 [Psilocin, 4-hydroxy-N,N-dimethyltryptamine, reference compound] |  | 308 RFU |  |  |  |  |  |  |  |  |  |  |  |  |  |  |  |  |  |  | 
